The data set has as its target T1, CYP19 (aromatase) containing microsomes (Homo sapiens, UniProt P11511).
T1 sequence (P11511 1-503): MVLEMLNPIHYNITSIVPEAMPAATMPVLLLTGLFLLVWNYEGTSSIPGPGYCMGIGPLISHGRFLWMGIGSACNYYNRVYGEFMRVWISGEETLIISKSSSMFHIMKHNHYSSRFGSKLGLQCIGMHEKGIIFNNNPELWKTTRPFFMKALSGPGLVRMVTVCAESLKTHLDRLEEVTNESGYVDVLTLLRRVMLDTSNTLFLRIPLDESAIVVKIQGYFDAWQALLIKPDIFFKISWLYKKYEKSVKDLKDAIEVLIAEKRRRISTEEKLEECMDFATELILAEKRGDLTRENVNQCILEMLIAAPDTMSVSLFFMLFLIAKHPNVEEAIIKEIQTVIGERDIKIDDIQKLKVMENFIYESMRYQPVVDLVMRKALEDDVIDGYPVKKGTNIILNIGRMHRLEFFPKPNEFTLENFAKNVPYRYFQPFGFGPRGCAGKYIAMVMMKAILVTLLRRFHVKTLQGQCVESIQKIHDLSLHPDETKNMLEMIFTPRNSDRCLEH
The settings on record: for change in intensity relative to the control: 20 μl of CYP19 aromatase preparation (FIG. 5); for decrease in intensity relative to the control reaction: 2 μM substrate, 1 mM NADPH.

The results in this text go back to patent US7829714B2, “Method for measuring aromatase activity” (GE Healthcare Limited, priority 2003, dated 2010).

Structures are written as SMILES. Read-outs that look alike come from different tables or passages of the source.

Experimental: NADPH was prepared to a final concentration of 1 mM in 100 mM disodium hydrogen phosphate buffer pH7.4.
100 μl of this reagent was dispensed in to replicate wells of a 96 well microtitre plate. To each well was dispensed 20 μl-30 μl of either the CYP19 (aromatase) containing microsomes or control microsomes (no CYP19). All microsomes were adjusted to the same protein concentration with assay buffer. The plates were incubated at 37° C. for 1 hour and then fluorescence intensity measurements were recorded on the Envision Plate Reader (Perkin Elmer, US), excitation 405 nm/emission BFP450 nm.

On to `C[C@]12CCC(=O)C=C1CC[C@@H]1[C@@H]2CC[C@]2(C)C(C(=O)NCCNC(=O)CCCCCn3c4ccccc4c(=O)c4ccccc43)CC[C@@H]12` (stereo partly shown) [Formula XX, 3-oxo-N-(2-{[6-(9-oxoacridin-10(9H)-yl)hexanoyl]amino}ethyl)androst-4-ene-17-carboxamide], for which the “fluorescence intensity, aromatase microsomes compared to control microsome preparation” value is “greater decrease in fluorescence intensity” and the “change in intensity relative to the control” value worked out at 17.5%. Besides, where the note is “300 of microsome preparation, 37° C. for 1 hour (FIG. 3)”, the “decrease in intensity relative to the control reaction” value came out at 24.2%. The decrease in fluorescence (in the absence of additional co-factor (NADPH) (FIG. 4)) came out at 16%. In addition, the decrease in fluorescence (in the presence of additional NADPH (FIG. 4)) turned out to be 24%. Besides, for the setting “microsome volume of 200, 37° C. for 1 hour, excitation 405 nm/emission 450 nm (FIG. 3)”, the “decrease in intensity relative to the control reaction” value stood at 17.5%.
In the case of `O=C(O)CCCCCn1c2ccccc2c(=O)c2ccccc21` [compound XVII, 6-(9-oxoacridin-10(9H)-yl)hexanoic acid, reference compound], the “change in intensity relative to the control” value was found to be 5%.
